Data as given in patent US10168342B2, “Lipid probes and uses thereof” (THE SCRIPPS RESEARCH INSTITUTE, priority 2015, dated 2019).

Target: T1, NENF (Homo sapiens, UniProt Q9UMX5)
T1 construct: Full-length cDNAs encoding for the each protein of interest were subcloned into pcDNA3.1 myc-His A; Myc (myc-His of pcDNA3.1 myc-His A); expressed in transfected cells; host or cells: HEK293T (lysates)
Experiment: In vitro gel-based competition of AEA-DA probe labeling of NENF
Type: binding
Settings: competitors 1-100 μM, NENF-transfected HEK293T lysates
Method: Full-length cDNAs encoding for the each protein of interest were subcloned into pcDNA3.1 myc-His A (Invitrogen) or used directly for transfections if available in a eukaryotic expression vector. HEK293T cells were grown to ˜70% confluence under standard growth conditions before adding the appropriate cDNA [control cells (“mock”) received an equal amount of empty pcDNA3.1 myc-His A vector] and FuGENE 6 or X-tremeGENE HP (Roche) transfection reagent according to the manufacturer's instructions. Cells were incubated for 36-48 hours before labeling in situ or harvesting for in vitro experiments.
Cell lysates (1.0 mg/mL), the indicated lipid probe (2.5 or 5 μM) and, for recombinant NUCB1 competition experiments, purified hNUCB1 (250 nM) and CaCl2 (100 μM) were mixed on ice. […] The samples were then irradiated with UV light and subjected to previously described click chemistry conditions. As before, each reaction was quenched with 4×SDS loading buffer (17 μL), and proteins were resolved using SDS-PAGE (10% acrylamide gel) and analyzed by in-gel fluorescent scanning on a Hitachi FMBIO-II flatbed fluorescence scanner. NUCB1 competition was quantitatively assessed by measuring the fluorescent intensity of the corresponding gel band using ImageJ 1.48v and normalizing this value by a non-competed gel band to control for loading differences.
Metabolite data are shown as mean±SEM (n=3-5/group). Differences between two groups were determined using Student's t test (unpaired, two-tailed) and significance was denoted for P values<0.05.

T1 sequence (Q9UMX5 32-172, species assumed): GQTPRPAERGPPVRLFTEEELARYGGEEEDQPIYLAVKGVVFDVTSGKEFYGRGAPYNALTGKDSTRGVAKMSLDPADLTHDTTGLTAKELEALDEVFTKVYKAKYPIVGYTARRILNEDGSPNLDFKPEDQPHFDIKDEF

SMILES: CCCCC/C=C\C/C=C\C/C=C\C/C=C\CCCC(=O)NCCO [AEA, anandamide, reference compound]
- competition of AEA-DA probe labeling of recombinant NENF: competitively blocked
